Experimental findings from patent US9309187B2, “EP2 receptor agonists” (TAKEDA GMBH, priority 2012, dated 2016) are described below.

Each structure is given as a SMILES string.

This experiment deals with normal human lung fibroblasts (NHLF), TGFβ-induced alpha-smooth muscle actin. The experiment in a line: Inhibition of the myofibroblast transition of normal human lung fibroblasts (NHLF). Conditions: Fibroblast; 1 ng/mL human TGFβ, 24 h, alpha-smooth muscle actin western blot; read-out: inhibition of NHLF myofibroblast transition pIC50 (-log IC50) (converted). Type of experiment: cell-based. The method, then: Method for Determination of the Inhibition of the Myofibroblast Transition of Normal Human Lung Fibroblasts (NHLF)
200,000 NHLF-cells were seeded into each well of six-well cell culture plates in full-medium and starved for 24 h after initial 24 h incubation at 37° C., 5% CO2 and 95% humidity. Before inducing fibroblast-to-myofibroblast conversion by adding 1 ng/mL human TGFβ serial dilution of test compound was administered. After 24 h the cells were collected and processed to lysates as described subsequently.
Cells were washed, twice in PBS, trypsinated and centrifuged at 500×g for 10 min. Afterwards the cell pellet was resuspended in 150 microL freshly prepared lysis buffer (50 mM Hepes, pH 7.5, 150 mM NaCl, 1.5 mM MgCl2, 10% […], 1% Triton X-100, 0.5% Desoxycholat, 0.2% SDS, 1 mM EGTA (ethylene glycol tetraacetic acid), 100 mM NaF, 10 mM Na4P2O7, 1 mM Na-Vanadat, 1 mM PMSF and 50 U/mL Benzonase (Merck KGaA, Darmstadt, Germany), one Phosphatase Inhibitor Cocktail tablet (Complete Mini from Roche Diagnostics, Mannheim, Germany) per 10 ml buffer and stored at −80° C. for further use. Protein concentration was determined following instructions of the BCA Protein Assay (Pierce Biotechnology, Rockford, Ill., USA). Photometric measurements were performed with the microplate reader Sunrise from Tecan Group Ltd., (Männedorf, Switzerland). 6 μg of protein of the different samples were separated on a 10% SDS (Sodium Dodecyl Sulfate) discontinuous polyacrylamide gel electrophoresis. Thereafter, proteins were blotted from the gel onto a nitrocellulose transfer membrane for 2 h at 400 mA in a wet-blot-chamber. Thereafter the membrane was blocked in 5% milkpowder in PBS (Phosphate Buffered Saline) containing 0.1% Tween 20 at 4° C. overnight. Subsequently the membrane was hybridized for 4 h with the primary anti-Alpha-smooth muscle actin antibody (1:2,000 in 5% milkpowder in PBS), washed three times in PBS containing 0.1% Tween 20. This was followed by incubation with the secondary horseradish-coupled goat anti-mouse IgG detection-antibody (1:10,000 in 5% milkpowder in PBS) for 2 h. After final washing with PBS containing 0.1% Tween 20 (three times for 10 min each) the blot was developed by using a chemiluminescence detection system according to the manufacturer instructions and a luminescent image analyzer (Fuji LAS 1000 Pro).
The numbers of the compounds correspond to the examples numbers.
In general terms: A western blot detects proteins with antibodies after separation by electrophoresis.
On to `O=C(O)/C=C/c1ccc(F)c(NC(=O)c2cc(-c3ccccc3)cc3ccccc23)c1` [Example 2, (2E)-3-(4-fluoro-3-{[(3-phenylnaphthalen-1-yl)carbonyl]amino}phenyl)prop-2-enoic acid], for which the IC50 (as a rule, the point on the concentration scale where inhibition reaches its midpoint) is 0.316 to 3.16 nM.
As for `O=C(O)/C=C/c1cccc(NC(=O)c2cc(-c3ccccc3)cc3ccccc23)c1` [Example 1, (2E)-3-(3-{[(3-phenylnaphthalen-1-yl)carbonyl]amino}phenyl)prop-2-enoic acid], the IC50 was 0.316 to 3.16 nM.
On to `O=C(O)/C=C/c1ccc(F)c(NC(=O)c2cc(-c3ccccc3F)cc3ccccc23)c1` [Example 9, (2E)-3-{3-[({3-[2-fluorophenyl]naphthalen-1-yl}carbonyl)amino]-4fluorophenyl}prop-2-enoic acid], for which the IC50 is 0.316 to 3.16 nM.
With `O=C(O)/C=C/c1ccc(F)c(NC(=O)c2cc(-c3cccc(F)c3)cc3ccccc23)c1` [Example 10, (2E)-3-{3-[({3-[3-fluorophenyl]naphthalen-1-yl}carbonyl)amino]-4fluorophenyl}prop-2-enoic acid], the half-maximal inhibitory concentration (IC50) was 0.316 to 3.16 nM.
